{
  "source": "patent US20050215551A1",
  "about": "“1-[2H-1-benzopyran-2-one-8-yl]- piperazine derivatives for the treatment of movement disorders” (SOLVAY PHARMACEUTICALS B.V., priority 2004, published 2005)",
  "key": {"5-HT1A [1]": {"biological_target": "5-HT1A (Homo sapiens, UniProt P08908)", "sequence (P08908 whole entry)": "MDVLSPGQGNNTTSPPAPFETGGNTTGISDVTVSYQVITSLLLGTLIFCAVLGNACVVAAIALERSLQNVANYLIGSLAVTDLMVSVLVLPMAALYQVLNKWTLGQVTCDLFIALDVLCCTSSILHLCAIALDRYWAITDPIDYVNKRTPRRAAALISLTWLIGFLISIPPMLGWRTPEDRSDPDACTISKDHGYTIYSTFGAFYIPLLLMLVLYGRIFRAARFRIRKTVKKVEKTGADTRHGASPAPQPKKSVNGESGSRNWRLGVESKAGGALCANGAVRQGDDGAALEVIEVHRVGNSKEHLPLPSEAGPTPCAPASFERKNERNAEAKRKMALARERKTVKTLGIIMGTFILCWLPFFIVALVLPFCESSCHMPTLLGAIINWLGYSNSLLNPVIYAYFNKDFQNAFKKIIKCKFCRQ", "experiment": "Receptor binding 5-HT1A", "settings": "radioligand [3H]-8-OH-DPAT, read-out: Ki(nM) Compound 1"}, "CGRP": {"biological_target": "CGRP (Homo sapiens, UniProt O60894+Q16602)", "experiment": "Receptor binding CGRP", "settings": "radioligand [125I]-CGRPa, read-out: Ki(nM) Compound 1", "procedure": "(§1) Receptor binding data were obtained by CEREP (128, rue Danton, 92500 Rueil-Malmaison, France) or at Solvay Pharmaceuticals B.V., using well documented standard procedures. Affinity for 5-HT1A receptors for instance, was determined by testing the ability of the compounds of the invention to displace [^3H]-2-(di-n-propylamino)-8-hydroxytetralin ([^3H]-8-OH-DPAT) from its specific binding sites in rat frontal cortex homogenates. This test is based on the method described by Gozlan et al. (Nature, 305, (1983), pages 140-142).\n(§2) The binding data collected in the table below were either obtained by CEREP (128, rue Danton, 92500 Rueil-Malmaison, France) or at Solvay Pharmaceuticals B.V., using well documented standard procedures."}, "α1A-adrenergic": {"biological_target": "α1A-adrenergic (Rattus norvegicus, UniProt P43140)", "sequence (P43140 whole entry)": "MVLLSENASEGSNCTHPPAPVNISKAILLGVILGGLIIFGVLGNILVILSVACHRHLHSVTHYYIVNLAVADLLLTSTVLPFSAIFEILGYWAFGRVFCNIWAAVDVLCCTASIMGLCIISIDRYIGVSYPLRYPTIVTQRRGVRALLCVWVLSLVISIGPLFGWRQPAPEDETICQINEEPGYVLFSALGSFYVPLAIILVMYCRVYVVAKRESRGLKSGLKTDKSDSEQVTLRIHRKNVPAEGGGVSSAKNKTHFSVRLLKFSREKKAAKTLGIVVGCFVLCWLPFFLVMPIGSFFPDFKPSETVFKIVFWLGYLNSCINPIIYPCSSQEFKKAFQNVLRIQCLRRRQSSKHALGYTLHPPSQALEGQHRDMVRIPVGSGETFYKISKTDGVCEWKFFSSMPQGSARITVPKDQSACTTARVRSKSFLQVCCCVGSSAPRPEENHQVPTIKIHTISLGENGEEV", "experiment": "Receptor binding α1A-adrenergic", "settings": "radioligand [3H]-prazosin, read-out: Ki(nM) Compound 1", "procedure": "as §1, §2"}, "5-HT2C": {"biological_target": "5-HT2C (Homo sapiens, UniProt P28335)", "experiment": "Receptor binding 5-HT2C", "settings": "radioligand [125I]-DOI, read-out: Ki(nM) Compound 1", "procedure": "as §1, §2"}, "Dopamine-D5": {"biological_target": "Dopamine-D5 (Homo sapiens, UniProt P21918)", "experiment": "Receptor binding Dopamine-D5", "settings": "radioligand [3H]-SCH 23390, read-out: Ki(nM) Compound 1", "procedure": "as §1, §2"}, "Adenosine-A3": {"biological_target": "Adenosine-A3 (Homo sapiens, UniProt P0DMS8)", "sequence (P0DMS8 whole entry)": "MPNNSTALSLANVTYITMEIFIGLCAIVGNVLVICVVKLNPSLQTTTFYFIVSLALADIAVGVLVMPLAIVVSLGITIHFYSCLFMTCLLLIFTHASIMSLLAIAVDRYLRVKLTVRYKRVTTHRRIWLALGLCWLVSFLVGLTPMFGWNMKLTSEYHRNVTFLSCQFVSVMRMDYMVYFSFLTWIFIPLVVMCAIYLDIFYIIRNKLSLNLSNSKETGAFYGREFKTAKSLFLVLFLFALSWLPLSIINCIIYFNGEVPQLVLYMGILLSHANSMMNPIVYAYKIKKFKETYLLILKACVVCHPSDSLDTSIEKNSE", "experiment": "Receptor binding Adenosine-A3", "settings": "radioligand [3H]-AB-MECA, read-out: Ki(nM) Compound 1", "procedure": "as §1, §2"}, "NAreuptake": {"biological_target": "NAreuptake (Homo sapiens, UniProt P23975)", "experiment": "Binding NA reuptake", "settings": "radioligand [3H]-nisoxetin, read-out: Ki(nM) Compound 1", "procedure": "as §1, §2"}, "5-HT1A [2]": {"biological_target": "T1, 5-HT1A (Rattus norvegicus, UniProt P19327)", "T1 construct": "from tissue; host or cells: whole animal (in vivo behavioural test)", "T1 sequence (P19327 whole entry)": "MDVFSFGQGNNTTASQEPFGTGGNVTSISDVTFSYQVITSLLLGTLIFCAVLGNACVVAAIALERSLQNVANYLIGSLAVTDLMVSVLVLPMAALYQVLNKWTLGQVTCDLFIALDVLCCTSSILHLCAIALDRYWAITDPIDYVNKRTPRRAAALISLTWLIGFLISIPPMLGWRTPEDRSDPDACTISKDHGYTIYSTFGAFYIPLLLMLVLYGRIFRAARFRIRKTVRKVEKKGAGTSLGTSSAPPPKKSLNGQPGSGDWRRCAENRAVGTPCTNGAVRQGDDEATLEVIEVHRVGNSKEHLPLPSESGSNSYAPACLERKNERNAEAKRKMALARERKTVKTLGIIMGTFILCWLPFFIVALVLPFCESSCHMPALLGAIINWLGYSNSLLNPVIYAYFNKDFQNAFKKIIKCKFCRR", "experiment": "In vivo 5-HT1A agonism: lower lip retraction (LLR)", "settings": "60 minutes after oral administration", "procedure": "Lower lip retraction was measured according to the method described by Berendsen et al., (Pharmacol. Biochem. Behav. 33, (1989), 821-827)."}, "CCKA": {"biological_target": "CCKA (Homo sapiens, UniProt P32238)", "experiment": "Receptor binding CCKA", "settings": "radioligand [3H]-devazepide, read-out: Ki(nM) Compound 1", "procedure": "as §1, §2"}, "Neurotensin-NT1": {"biological_target": "Neurotensin-NT1 (Homo sapiens, UniProt P30989)", "experiment": "Receptor binding Neurotensin-NT1", "settings": "radioligand [125I]-neurotensin, read-out: Ki(nM) Compound 1", "procedure": "as §1, §2"}, "Glycine strychn. insens.": {"biological_target": "Glycine strychn. insens. (Rattus norvegicus, UniProt P35439)", "experiment": "Receptor binding Glycine strychn. insens.", "settings": "radioligand [3H]-MDL105519, read-out: Ki(nM) Compound 1", "procedure": "as §1, §2"}, "BDNF": {"test_system": "BDNF", "experiment": "Induction of growth factors: BDNF RNA in brain areas by quantitative PCR", "type": "in vivo", "settings": "3 mg/kg p.o. once daily, 3 weeks", "procedure": "(§3) Compounds of the invention (3 mg/kg, p.o.) or vehicle are administered once daily during a period of 3 weeks (n=8 animals per treatment group). 24 hours after the last dose the animals are sacrificed (using CO2/O2 anesthesia), the brains are removed and the dissected. RNA is extracted from the individual brain samples and induction of the growth factors BDNF and GDNF is determined by quantitative PCR. Total RNA is isolated with the Trizol method (Invitrogen) from the brain pieces. cDNA is made starting with 2 μg of total RNA (pretreated for 30 min with DNAse (Ambion) in first strand buffer) using the reverse transcriptase Superscript II (Invitrogen). Quantification of […] by real time PCR makes use of the observation that the early cycles of PCR are characterized by an exponential increase in target amplification. The accumulation of PCR product is measured using Sybergreen II. Primers are designed using the software package Primer Express (Applied Biosystems). Expression levels of the housekeeping genes ornithine decarboxylase (ODC_ex8) and alpha tubulin (TUBA) used for normalization and as control for good cDNA synthesis."}, "LTB4": {"biological_target": "LTB4 (Cavia porcellus, UniProt H0VYV8)", "sequence (H0VYV8 1-348)": "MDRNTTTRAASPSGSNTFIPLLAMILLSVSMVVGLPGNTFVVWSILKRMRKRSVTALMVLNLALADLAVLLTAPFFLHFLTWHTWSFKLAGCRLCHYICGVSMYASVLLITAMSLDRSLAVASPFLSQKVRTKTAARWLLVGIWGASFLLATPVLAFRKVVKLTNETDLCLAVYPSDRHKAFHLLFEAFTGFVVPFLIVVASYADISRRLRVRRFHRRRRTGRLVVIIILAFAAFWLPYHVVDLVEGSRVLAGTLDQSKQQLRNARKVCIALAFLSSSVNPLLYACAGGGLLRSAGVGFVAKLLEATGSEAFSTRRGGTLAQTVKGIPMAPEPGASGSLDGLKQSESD", "experiment": "Receptor binding LTB4", "settings": "radioligand [3H]-LTB4; guinea pig; read-out: Ki(nM) Compound 1", "procedure": "as §1, §2"}, "Dopamine-D2": {"biological_target": "Dopamine-D2 (Homo sapiens, UniProt P14416)", "sequence (P14416 whole entry)": "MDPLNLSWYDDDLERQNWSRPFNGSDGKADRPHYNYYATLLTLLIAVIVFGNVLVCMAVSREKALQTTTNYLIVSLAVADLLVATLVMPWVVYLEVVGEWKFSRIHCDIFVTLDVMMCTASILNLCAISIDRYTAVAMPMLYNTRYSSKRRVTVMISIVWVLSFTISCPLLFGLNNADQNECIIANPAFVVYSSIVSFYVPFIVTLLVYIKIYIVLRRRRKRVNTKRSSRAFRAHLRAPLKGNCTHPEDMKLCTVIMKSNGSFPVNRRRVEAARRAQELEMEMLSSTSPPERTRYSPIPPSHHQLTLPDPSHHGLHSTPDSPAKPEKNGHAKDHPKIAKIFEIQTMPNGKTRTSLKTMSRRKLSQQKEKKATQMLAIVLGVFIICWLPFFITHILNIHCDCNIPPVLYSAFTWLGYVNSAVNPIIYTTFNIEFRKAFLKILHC", "experiment": "Receptor binding Dopamine-D2", "settings": "radioligand [3H]-spiperone, read-out: Ki(nM) Compound 1", "procedure": "as §1, §2"}, "5-HT7": {"biological_target": "5-HT7 (Homo sapiens, UniProt P34969)", "experiment": "Receptor binding 5-HT7", "settings": "radioligand [3H]-LSD, read-out: Ki(nM) Compound 1", "procedure": "as §1, §2"}, "Histamine-H3": {"biological_target": "Histamine-H3 (Rattus norvegicus, UniProt Q9QYN8)", "sequence (Q9QYN8 whole entry)": "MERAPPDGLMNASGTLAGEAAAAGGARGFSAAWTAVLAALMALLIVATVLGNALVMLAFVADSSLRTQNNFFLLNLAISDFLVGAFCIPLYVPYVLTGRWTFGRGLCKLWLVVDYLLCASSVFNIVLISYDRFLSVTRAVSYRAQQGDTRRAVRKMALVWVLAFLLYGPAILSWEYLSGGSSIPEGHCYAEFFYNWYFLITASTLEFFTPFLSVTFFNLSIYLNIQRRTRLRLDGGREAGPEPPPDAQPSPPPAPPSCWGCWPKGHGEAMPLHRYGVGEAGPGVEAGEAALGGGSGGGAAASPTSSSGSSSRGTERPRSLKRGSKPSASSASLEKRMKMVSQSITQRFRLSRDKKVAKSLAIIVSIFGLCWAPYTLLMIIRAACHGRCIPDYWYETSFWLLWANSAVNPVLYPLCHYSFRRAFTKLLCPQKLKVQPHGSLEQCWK", "experiment": "Receptor binding Histamine-H3", "settings": "radioligand [3H]-α-methylhistamine, read-out: Ki(nM) Compound 1", "procedure": "as §1, §2"}, "GDNF": {"test_system": "GDNF", "experiment": "Induction of growth factors: GDNF RNA in brain areas by quantitative PCR", "type": "in vivo", "settings": "3 mg/kg p.o. once daily, 3 weeks", "procedure": "as §3"}, "μ-opiate": {"biological_target": "μ-opiate (Rattus norvegicus, UniProt P33535)", "sequence (P33535 whole entry)": "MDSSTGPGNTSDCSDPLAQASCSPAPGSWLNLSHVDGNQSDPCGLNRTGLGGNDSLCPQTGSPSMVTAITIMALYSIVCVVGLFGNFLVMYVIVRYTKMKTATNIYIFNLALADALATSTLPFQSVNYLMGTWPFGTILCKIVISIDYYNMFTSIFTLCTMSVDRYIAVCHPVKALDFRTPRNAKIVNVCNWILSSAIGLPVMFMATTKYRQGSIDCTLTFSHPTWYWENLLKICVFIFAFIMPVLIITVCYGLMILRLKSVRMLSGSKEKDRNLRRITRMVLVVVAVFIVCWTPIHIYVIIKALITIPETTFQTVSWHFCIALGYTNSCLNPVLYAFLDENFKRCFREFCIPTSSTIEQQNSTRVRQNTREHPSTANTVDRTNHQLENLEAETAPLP", "experiment": "Receptor binding μ-opiate", "settings": "radioligand [3H]-DAMGO, read-out: Ki(nM) Compound 1", "procedure": "as §1, §2"}, "bradykinin": {"biological_target": "bradykinin (Homo sapiens, UniProt P30411)", "sequence (P30411 whole entry)": "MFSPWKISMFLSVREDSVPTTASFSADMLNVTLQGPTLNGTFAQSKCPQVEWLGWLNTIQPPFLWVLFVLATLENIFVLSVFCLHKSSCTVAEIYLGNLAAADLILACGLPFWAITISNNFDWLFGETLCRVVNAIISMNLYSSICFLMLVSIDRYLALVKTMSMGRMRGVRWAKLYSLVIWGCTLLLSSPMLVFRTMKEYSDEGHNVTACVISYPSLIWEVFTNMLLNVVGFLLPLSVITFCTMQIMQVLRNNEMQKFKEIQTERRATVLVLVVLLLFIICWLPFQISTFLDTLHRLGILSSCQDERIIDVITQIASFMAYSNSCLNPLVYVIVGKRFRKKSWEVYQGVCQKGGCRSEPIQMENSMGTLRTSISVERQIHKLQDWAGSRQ", "experiment": "Receptor binding bradykinin", "settings": "radioligand [3H]-bradykinin, read-out: Ki(nM) Compound 1", "procedure": "as §1, §2"}, "5-HT2A": {"biological_target": "5-HT2A (Homo sapiens, UniProt P28223)", "sequence (P28223 whole entry)": "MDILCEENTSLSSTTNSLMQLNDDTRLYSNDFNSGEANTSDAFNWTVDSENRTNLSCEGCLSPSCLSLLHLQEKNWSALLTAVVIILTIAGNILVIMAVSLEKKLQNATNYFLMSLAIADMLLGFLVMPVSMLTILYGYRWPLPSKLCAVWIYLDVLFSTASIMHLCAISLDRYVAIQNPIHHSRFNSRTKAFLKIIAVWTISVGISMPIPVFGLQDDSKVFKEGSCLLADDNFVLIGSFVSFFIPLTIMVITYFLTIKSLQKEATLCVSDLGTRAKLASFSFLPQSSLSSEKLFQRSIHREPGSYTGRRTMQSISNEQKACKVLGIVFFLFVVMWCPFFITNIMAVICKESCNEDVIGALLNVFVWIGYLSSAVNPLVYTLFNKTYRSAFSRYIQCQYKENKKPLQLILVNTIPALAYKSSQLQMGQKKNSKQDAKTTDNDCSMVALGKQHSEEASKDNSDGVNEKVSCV", "experiment": "Receptor binding 5-HT2A", "settings": "radioligand [3H]-ketanserin, read-out: Ki(nM) Compound 1", "procedure": "as §1, §2"}, "5-HT1B": {"biological_target": "5-HT1B (Rattus norvegicus, UniProt P28564)", "sequence (P28564 whole entry)": "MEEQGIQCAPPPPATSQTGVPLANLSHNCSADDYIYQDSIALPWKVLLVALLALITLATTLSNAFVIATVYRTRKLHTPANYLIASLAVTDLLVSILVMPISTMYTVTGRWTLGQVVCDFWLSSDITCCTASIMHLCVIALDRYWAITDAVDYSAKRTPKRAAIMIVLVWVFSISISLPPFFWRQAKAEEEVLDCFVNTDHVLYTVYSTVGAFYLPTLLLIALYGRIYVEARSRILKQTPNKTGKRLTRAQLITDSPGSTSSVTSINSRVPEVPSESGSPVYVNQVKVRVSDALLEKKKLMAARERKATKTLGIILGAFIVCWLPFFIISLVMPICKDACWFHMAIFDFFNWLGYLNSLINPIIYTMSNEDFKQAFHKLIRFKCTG", "experiment": "Receptor binding 5-HT1B", "settings": "radioligand [125I]-cyanopindolol, read-out: Ki(nM) Compound 1", "procedure": "as §1, §2"}, "Neurokinin-NK1": {"biological_target": "Neurokinin-NK1 (Homo sapiens, UniProt P25103)", "sequence (P25103 whole entry)": "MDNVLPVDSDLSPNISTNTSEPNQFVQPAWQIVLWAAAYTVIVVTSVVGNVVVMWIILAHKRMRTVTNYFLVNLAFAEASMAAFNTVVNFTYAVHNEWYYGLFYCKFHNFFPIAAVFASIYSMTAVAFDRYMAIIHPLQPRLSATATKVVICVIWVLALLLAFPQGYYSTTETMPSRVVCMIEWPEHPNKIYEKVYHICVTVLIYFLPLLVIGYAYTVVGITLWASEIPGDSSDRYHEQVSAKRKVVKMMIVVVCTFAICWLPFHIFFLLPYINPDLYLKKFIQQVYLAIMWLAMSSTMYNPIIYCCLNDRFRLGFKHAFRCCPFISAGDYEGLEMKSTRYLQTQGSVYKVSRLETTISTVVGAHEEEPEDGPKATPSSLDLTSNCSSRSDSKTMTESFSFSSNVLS", "experiment": "Receptor binding Neurokinin-NK1", "settings": "radioligand [3H]-substance P, read-out: Ki(nM) Compound 1", "procedure": "as §1, §2"}},
  "data": [
    {"smiles": "Nc1cc2cccc(N3CCNCC3)c2oc1=O", "note": "[Compound 1, 3-amino-8-(1-piperazinyl)-2H-1-benzopyran-2-one]", "values": [
      {"measurement": "Ki", "setting": "5-HT1A [1]", "result": 0.25, "unit": "nM"},
      {"measurement": "Ki", "setting": "CGRP", "result": "> 1000", "unit": "nM"},
      {"measurement": "Ki", "setting": "α1A-adrenergic", "result": 630, "unit": "nM"},
      {"measurement": "Ki", "setting": "5-HT2C", "result": "> 1000", "unit": "nM"},
      {"measurement": "Ki", "setting": "Dopamine-D5", "result": "> 1000", "unit": "nM"},
      {"measurement": "Ki", "setting": "Adenosine-A3", "result": "> 1000", "unit": "nM"},
      {"measurement": "Ki", "setting": "NAreuptake", "result": "> 1000", "unit": "nM"},
      {"measurement": "ED50", "setting": "5-HT1A [2]", "result": 0.12, "unit": "mg/kg"},
      {"measurement": "Ki", "setting": "CCKA", "result": "> 1000", "unit": "nM"},
      {"measurement": "Ki", "setting": "Neurotensin-NT1", "result": "> 1000", "unit": "nM"},
      {"measurement": "Ki", "setting": "Glycine strychn. insens.", "result": "> 10000", "unit": "nM"},
      {"measurement": "BDNF RNA, fold increase compared to vehicle treatment", "setting": "BDNF; hippocampus", "result": 2.4, "unit": "fold"},
      {"measurement": "BDNF RNA, fold increase compared to vehicle treatment", "setting": "BDNF; nucleus accumbens", "result": 5.1, "unit": "fold"},
      {"measurement": "BDNF RNA, fold increase compared to vehicle treatment", "setting": "BDNF; prefrontal cortex", "result": 2.1, "unit": "fold"},
      {"measurement": "BDNF RNA, fold increase compared to vehicle treatment", "setting": "BDNF; striatum", "result": 1.8, "unit": "fold"},
      {"measurement": "BDNF RNA, fold increase compared to vehicle treatment", "setting": "BDNF; thalamus", "result": 2.3, "unit": "fold"},
      {"measurement": "Ki", "setting": "LTB4", "result": "> 10000", "unit": "nM"},
      {"measurement": "Ki", "setting": "Dopamine-D2", "result": "> 1000", "unit": "nM"},
      {"measurement": "Ki", "setting": "5-HT7", "result": 3.2, "unit": "nM"},
      {"measurement": "Ki", "setting": "Histamine-H3", "result": "> 10000", "unit": "nM"},
      {"measurement": "GDNF RNA, fold increase compared to vehicle treatment", "setting": "GDNF; hippocampus", "result": 1.7, "unit": "fold"},
      {"measurement": "GDNF RNA, fold increase compared to vehicle treatment", "setting": "GDNF; nucleus accumbens", "result": 1.5, "unit": "fold"},
      {"measurement": "GDNF RNA, fold increase compared to vehicle treatment", "setting": "GDNF; prefrontal cortex", "result": 1.3, "unit": "fold"},
      {"measurement": "GDNF RNA, fold increase compared to vehicle treatment", "setting": "GDNF; striatum", "result": 2.2, "unit": "fold"},
      {"measurement": "GDNF RNA, fold increase compared to vehicle treatment", "setting": "GDNF; thalamus", "result": 2.6, "unit": "fold"},
      {"measurement": "Ki", "setting": "μ-opiate", "result": "> 1000", "unit": "nM"},
      {"measurement": "Ki", "setting": "bradykinin", "result": "> 1000", "unit": "nM"},
      {"measurement": "Ki", "setting": "5-HT2A", "result": 630, "unit": "nM"},
      {"measurement": "Ki", "setting": "5-HT1B", "result": 2, "unit": "nM"},
      {"measurement": "Ki", "setting": "Neurokinin-NK1", "result": "> 1000", "unit": "nM"}
    ]}
  ]
}
